Laboratory results as given in US4927832A, “Novel tetrahydropyridines having analgesic activity” (Roussel Uclaf, priority 1987, dated 1990).
pIC50: −log10 of the molar value. Where a name gives a salt, the structure may show the parent alone.

How the values were obtained:
male mice = assay: Analgesic activity (acetic acid stretching and twisting test); type: in vivo; conditions: administered orally 30 minutes before intraperitoneal acetic acid
Protocol: This test was based on the observation of Koster et al (Fed. Proc. 1959, 1B, 412) that the intraperitioneal injection of acetic acid causes repeated movements of stretching and twisting in rodents which can be considered as manifestations of a diffuse abdominal pain because they ae attenuated by analgesics. The acetic acid was injected at a […] male mice of average weight of […]. The product under study was administered orally 30 minutes before the injection of the acetic acid to groups of 10 animals, each trial including a control group which receives the vehicle. Five minutes after the injection of the irritant, the stretchings and twistings were counted for each animal for a period of 15 minutes. The analgesic effect of each dose of product studied was expressed as a percentage of protection in relation to the average number of movements observed in the controls receiving acetic acid alone. The DA50 or dose necessary to reduce the number of stretchings by 50% was calculated according to the method of least squares. The DA50 values obtained with the products of Example 1 and 3 were respectively 2.5 and 5 mg/kg.

K opiated receptor = target: T1, K opiated receptor (Cavia porcellus, UniProt P41144); assay: Liaison to the K opiated receptor in vitro (displacement of 3H ethylketocyclazocine); type: binding, guinea pigs; conditions: 50% inhibiting concentration (IC50), membranes from guinea pig brains, 3H ethylketocyclazocine 1 nM, 25° C. for 40 minutes
T1 construct: prepared from the brains of guinea pigs were used; from tissue; host or cells: guinea pig brain membranes
Protocol: (1) Liaison to the K opiated receptor in vitro:
Membrane residues preserved at -30° C. (possibly up to about 30 days) and prepared from the brains of guinea pigs were used.' The residues were suspended in Tris pH 7.7 buffer and fractions of 2 ml were distributed in hemolysis tubes, 9^3 H ethylketocyclazocine 1 nM and the product under study were added. The product was first tested at 5×10^-6 M (in triplicate). When the product tested displaced the radioactivity bound specifically to the receptor by more than 50%, it was again tested according to a range of 7 doses to determine the dose which inhibits the radioactivity bound specifically to the receptor by 50%. In this way, the 50% inhibiting concentration was determined.
The non-specific liaison was determined by adding the product known as U-50488 H (Lahti et al. 1982, Life Sci. 31, 2257) at 10^-5 M in triplicate. After incubating at 25° C. for 40 minutes, returning to the water-bath at 0° C. for 5 minutes, filtering under vacuum, and rinsing with Tris pH 7.7 buffer, the radioactivity was counted in the presence of scintillating Trition. […]

[1] = system: Male rats of Sprague Dawley strain; assay: Measurement of diuretic activity; type: in vivo; conditions: 5 mg/kg orally, urinary volume over period t0h-t5h
Protocol: (3) Measurement of diuretic activity Male rats of Sprague Dawley strain weighing 180-200 g were deprived of food for 17 hours before the test, while receiving water ad libitum. Groups of 8 animals were set up for each dose tested and the rats received the product under test or its vehicle orally. The urine volume was measured every hour for the 5 hours following the administration of the product. After this period, the urines were collected and the activity of the product was expressed as a percentage of variation calculated on the urinary volume corresponding to the period tOH --[…].

rat = assay: Anti-arrhythmic activity in the rat (aconitine perfusion); type: in vivo; conditions: 5 minutes before aconitine perfusion, compared with controls
Protocol: (2) Anti-arrhythmic activity in the rat
Male rats weighing 300-350 g, anesthesized intra-peritoneally with 1.20 g/kg of urethane, were tracheotomised and submitted to artifical respiration (40-50 insufflations of 3 ml/minute). Needles were implanted sub-cutaneously to record the electrocardiogram of the rats on the DII derivation signal and the products under test were administered intravenously. Five minutes after administering the product, the jugular vein of the rats was perfused with 10 μg/mn from 0.2 ml of an aconitine solution and the time of appearance of disturbances of the cardiac rhythm was noted. The results were expressed as percentage of extension of the time of appearance of the cardiac rhythm disturbances as compared with controls and as a function of the dose of the product tested.

T1 sequence (P41144 whole entry): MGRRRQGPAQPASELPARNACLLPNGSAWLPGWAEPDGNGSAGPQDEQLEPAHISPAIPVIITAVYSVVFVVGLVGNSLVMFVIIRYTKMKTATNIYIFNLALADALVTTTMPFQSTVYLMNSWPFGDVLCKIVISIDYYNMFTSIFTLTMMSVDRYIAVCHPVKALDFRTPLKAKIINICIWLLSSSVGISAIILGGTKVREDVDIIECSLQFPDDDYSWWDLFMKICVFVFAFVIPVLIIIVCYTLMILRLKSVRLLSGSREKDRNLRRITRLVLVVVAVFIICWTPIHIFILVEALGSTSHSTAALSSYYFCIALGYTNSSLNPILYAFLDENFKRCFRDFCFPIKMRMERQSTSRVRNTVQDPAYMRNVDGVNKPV

SMILES | ED50 (male mice; Mus musculus, po, 0.5 h, read-out: DA50 or dose necessary to reduce the number of stretchings by 50%) [mg/kg] | pIC50 (K opiated receptor) | Percentage of variation of the urine volume [1] | Percentage of extension of the time of appearance of the cardiac rhythm disturbances (rat; dose 1 mg/kg intravenously) | Percentage of extension of the time of appearance of the cardiac rhythm disturbances (rat; dose 2.5 mg/kg intravenously) | DA50 or dose necessary to reduce the number of stretchings by 50% (male mice; 30 min) [mg/kg]
O=C(Cc1ccc(Cl)c(Cl)c1)N1CCCC2CCC(N3CCCC3)C21 (mixture of isomers) [Example 1, [4aRS (4a-α, 7a-α)](±)1-[(3,4-dichlorophenyl)-acetyl]-octahydro-7-(1-pyrrolidinyl)-1H-1-pyrindine hydrochloride (isomer cis I)] | 2.5 | 8.40 | +85% | +26% | +35% | –
O=C(Cc1ccc(Cl)c(Cl)c1)N1CCC[C@@H]2CCCC[C@H](N3CCCC3)[C@@H]21 (relative stereo) [Example 4, [4a-α, 9-β, 9a-α] (±) decahydro-1-([3,4-dichlorophenyl)-acetyl]-9-(1-pyrrolidinyl)-1H-cyclohepta[b]pyridine hydrochloride] | – | – | – | +37% | +65% | –
O=C(Cc1ccc(Cl)c(Cl)c1)N1CCCC2CCC(N3CCCC3)C21 (stereo not drawn) [Example 3, [4aRS (4aα, 7aβ)] (35) 1-[(3.4-dichlorophenyl)acetyl]octahydro-7-(1-pyrrolidinyl)-1H-1-pyrindine hydrochloride (isomer trans I).] | – | 8.05 | +57% | – | – | 5
